We go through 8 compounds from ChEMBL document CHEMBL1201862, “PubChem BioAssay data set” (2004).

Active and inactive are the calls of the source.

Test [1] deals with NAD-dependent protein deacylase sirtuin-5, mitochondrial (Homo sapiens, UniProt Q9NXA8). The test can be described thus: SIRT5 deacylase inhibitors, dose response, biochemical, fluorescence imaging, cherry-pick, set 6 (AID 720597).
Test [2] can be described thus: inhibitors of non-replicating M. tuberculosis, dose response, luciferase, dry powder (AID 651620). It is filed as functional. As to conditions: Mycobacterium tuberculosis.
Test [3] can be described thus: cytotoxicity in HeLa cells, dose response, cytotoxicity control, cell-based, plate reader, dry powder (AID 651946). The test is classed as functional.
A short description of test [4]: cytotoxicity in HepG2 cells, dose response, cytotoxicity control, cell-based, plate reader, dry powder (AID 651947). It is filed as functional.
Test [5] can be described thus: inhibitors of non-replicating M. tuberculosis, dose response, luciferase, dry powder (AID 651619). It is filed as functional. As to conditions: Mycobacterium tuberculosis.
Test [6] deals with Endoplasmic reticulum aminopeptidase 1 (Homo sapiens, UniProt Q9NZ08). The test can be described thus: ERAP1 aminopeptidase inhibitors, dose response, biochemical, cherry-pick, set 2, plate reader (AID 743314).
Sequence of Endoplasmic reticulum aminopeptidase 1 (Q9NZ08 whole entry): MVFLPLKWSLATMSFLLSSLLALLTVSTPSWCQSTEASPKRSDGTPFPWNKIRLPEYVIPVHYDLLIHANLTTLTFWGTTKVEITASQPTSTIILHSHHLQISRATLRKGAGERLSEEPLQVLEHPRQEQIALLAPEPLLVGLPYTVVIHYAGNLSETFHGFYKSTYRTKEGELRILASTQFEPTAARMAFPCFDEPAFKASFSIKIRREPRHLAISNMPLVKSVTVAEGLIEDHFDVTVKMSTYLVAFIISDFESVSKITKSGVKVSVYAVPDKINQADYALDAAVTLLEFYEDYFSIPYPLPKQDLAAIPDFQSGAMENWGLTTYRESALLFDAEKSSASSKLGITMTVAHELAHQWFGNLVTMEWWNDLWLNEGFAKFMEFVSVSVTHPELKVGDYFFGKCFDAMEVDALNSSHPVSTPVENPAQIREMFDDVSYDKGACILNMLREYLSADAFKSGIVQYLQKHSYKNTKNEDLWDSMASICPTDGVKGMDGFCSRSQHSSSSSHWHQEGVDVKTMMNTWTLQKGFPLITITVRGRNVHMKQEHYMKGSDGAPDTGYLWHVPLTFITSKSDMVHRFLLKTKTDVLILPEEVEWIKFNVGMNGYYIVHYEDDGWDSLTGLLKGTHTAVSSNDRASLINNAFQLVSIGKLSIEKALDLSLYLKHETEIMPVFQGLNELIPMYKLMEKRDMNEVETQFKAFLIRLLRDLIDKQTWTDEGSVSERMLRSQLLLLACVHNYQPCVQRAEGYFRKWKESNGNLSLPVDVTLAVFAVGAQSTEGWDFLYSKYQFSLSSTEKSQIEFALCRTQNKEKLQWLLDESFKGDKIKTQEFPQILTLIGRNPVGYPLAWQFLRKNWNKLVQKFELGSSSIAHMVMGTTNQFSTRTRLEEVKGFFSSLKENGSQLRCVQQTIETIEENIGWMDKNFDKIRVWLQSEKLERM
Test [7] deals with Endoplasmic reticulum aminopeptidase 2 (Homo sapiens, UniProt Q6P179). The test can be described thus: ERAP2 aminopeptidase inhibitors, dose response, selectivity assay for selective ERAP1 modulator project, biochemical, fluorescence plate reader, cherry-picked, set 2 (AID 743320).
Sequence of Endoplasmic reticulum aminopeptidase 2 (Q6P179 whole entry): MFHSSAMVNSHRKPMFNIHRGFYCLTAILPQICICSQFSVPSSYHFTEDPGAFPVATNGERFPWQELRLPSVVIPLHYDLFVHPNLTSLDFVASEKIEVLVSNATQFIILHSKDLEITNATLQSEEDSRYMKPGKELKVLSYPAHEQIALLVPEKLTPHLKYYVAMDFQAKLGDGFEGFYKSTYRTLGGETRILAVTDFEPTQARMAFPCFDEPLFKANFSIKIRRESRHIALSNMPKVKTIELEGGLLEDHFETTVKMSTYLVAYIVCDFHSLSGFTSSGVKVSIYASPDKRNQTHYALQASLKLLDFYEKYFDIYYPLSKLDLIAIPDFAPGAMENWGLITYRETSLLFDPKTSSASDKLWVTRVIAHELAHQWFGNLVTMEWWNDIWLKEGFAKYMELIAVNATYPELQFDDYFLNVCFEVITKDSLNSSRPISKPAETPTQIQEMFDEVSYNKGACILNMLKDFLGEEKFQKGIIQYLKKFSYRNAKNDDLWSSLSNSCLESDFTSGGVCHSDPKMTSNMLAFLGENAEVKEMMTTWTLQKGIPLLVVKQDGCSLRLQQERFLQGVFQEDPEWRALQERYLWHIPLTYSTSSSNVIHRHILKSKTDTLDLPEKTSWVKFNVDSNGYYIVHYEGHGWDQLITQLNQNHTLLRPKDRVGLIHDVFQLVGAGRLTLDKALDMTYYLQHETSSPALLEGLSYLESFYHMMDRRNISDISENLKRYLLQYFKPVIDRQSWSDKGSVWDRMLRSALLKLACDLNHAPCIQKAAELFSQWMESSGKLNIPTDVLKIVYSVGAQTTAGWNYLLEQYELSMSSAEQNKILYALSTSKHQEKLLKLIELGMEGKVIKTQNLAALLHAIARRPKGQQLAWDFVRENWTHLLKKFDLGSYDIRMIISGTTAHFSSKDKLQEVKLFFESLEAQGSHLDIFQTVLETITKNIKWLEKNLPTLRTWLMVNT
Test [8] can be described thus: Mtb BioA inhibitors by displacement, dose response, biochemical, coupled fluorescence displacement, 20-point, dry powder (AID 743357). The test is classed as functional.
The nature of test [9]: HEK293 cell cytotoxicity, dose response, cytotoxicity control, luminescence, dry powder, set 12 (AID 743354). The test is classed as functional, cell-based.
A short description of test [10]: Plasmodium falciparum Dd2 Sybr green parasite growth Measured in Cell-Based and Microorganism Combination System Using Plate Reader - 2153-01_Inhibitor_Dose_DryPowder_Activity_Set3. The test is classed as functional.
Test [11] is described as follows: HepG2 cell cytotoxicity, dose response, cytotoxicity control, plate reader, dry powder samples (AID 1159569).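 Further: inhibitor potency with signal falling toward the positive control level.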 It is filed as functional, cell-based.
Test [12] is described as follows: P. falciparum ATP4 D1247Y mutant growth inhibitors, dose response, NITD609-resistant line, SYBR Green, dry powder (AID 1159571).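 Further: parasites synchronized at ring stage by sorbitol before testing.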 It is filed as functional, cell-based.
Test [13] in a line: P. falciparum 3D7-ScDHODH growth inhibitors, dose response, SYBR Green, dry powder samples (AID 1159570).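 Further: parasite growth measured after 72 hours of compound exposure.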 It is filed as functional, cell-based.
Test [14] is described as follows: P. falciparum Dd2 growth inhibitors, dose response, SYBR Green, dry powder samples (AID 1159566).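 Further: potency for growth inhibition with lower SYBR green DNA signal.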 It is filed as functional, cell-based.
Test [15] can be described thus: P. falciparum Dd2 growth inhibitors, dose response, SYBR Green, cherry-picked samples (AID 1159567). It is filed as functional, cell-based.
Test [16] in a line: P. falciparum Dd2 blood-stage growth inhibition, dose response, SYBR Green fluorescence, erythrocytes, dry powder, set 2 (AID 1159574). The test is classed as functional, cell-based.
The next test relates to SN12K1. The test can be described thus: cells. The test is classed as functional. As to conditions: Homo sapiens.
Test [17] in a line: HeLa 4N DNA content increase, dose response, cell-based, IC50 (AID 1117351). It is filed as functional.
A further test concerns HEK293. Briefly: inhibitors of LMP1-driven NF-kB reporter, dose response, cell-based, HEK293, luciferase, cherry-pick (AID 588343). It is filed as functional. As to conditions: Homo sapiens.
A short description of test [18]: Concentration-dependent survival of SW480 colon cancer line, luminescence detection with CellTiter-Glo, half-maximal inhibitory concentration (AID 1117338). It is filed as functional. Background: ATP-based viability assays read luminescence as a measure of living cells.
Test [19] can be described thus: cytotoxicity toward HCT116 cells – cell-based, CellTiter-Glo luminescence, IC50, dose response (AID 1117332). Particulars: HCT-116. The test is classed as functional.
Test [20] is described as follows: off-target signal loss in HeLa-CEM21 co-culture – HeLa F-luc CTL cells, cherry-picked, counter-screen for HIV-1 Env fusion inhibitor project, dose response (AID 652040).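 Further: potency for signal decrease marking cytotoxic or nonspecific inhibition.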 It is filed as functional, cell-based. (In general: Counterscreens check selectivity or assay interference.)
Test [21] in a line: cytotoxicity toward DRD oncogenic fibroblasts, dose response, cell-based, non-viral oncogenic, luminescence (AID 1934). The test is classed as functional. As to conditions: Homo sapiens.
The next test deals with Streptococcus. Briefly: Group A Streptococcus viability loss, dose response, counter-screen for streptokinase expression inhibitor project, luminescence, BacTiterGlo (AID 1915).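 Further: potency for reduction of bacterial viability or growth.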 It is filed as functional, organism-based.
A short description of test [22]: SNU-C1 cell viability reduction, dose response, CellTiter-Glo luminescence (AID 1117323). The test is classed as functional, cell-based.
The next test deals with P388. The test can be described thus: cells. As to conditions: Mus musculus. The test is classed as functional.
The next test relates to P388/ADR. Briefly: cells. It is filed as functional. Particulars: Mus musculus.
Test [23] can be described thus: RKO cell viability reduction, dose response, CellTiter-Glo luminescence (AID 1117322). It is filed as functional.
Test [24] is described as follows: CellTiter-Glo luminescent dose response of DLD-1 viability loss (AID 1117352). The test is classed as functional.
The nature of test [25]: cytotoxicity toward HT-29 cells – cell-based, CellTiter-Glo luminescence, IC50, dose response (AID 1117330). It is filed as functional.
The nature of test [26]: cytotoxicity toward Colo320 cells – cell-based, CellTiter-Glo luminescence, IC50, dose response (AID 1117334). The test is classed as functional. Particulars: COLO 320.
Test [27] is described as follows: HeLa 2N DNA content increase, dose response, cell-based, IC50 (AID 1117349). It is filed as functional.
Test [28] relates to BJ. Briefly: cells. It is filed as functional, cell-based. As to conditions: Homo sapiens.
Test [29] is described as follows: HCT116 cell viability decrease, GSK3B pretreatment – CellTiter-Glo, IC50, dose response (AID 1117339). The test is classed as functional. Particulars: HCT-116.
Test [30] has as its system Streptococcus sp. 'group A'. Briefly: growth inhibition of control SK(-) GAS strain, dose response, counter-screen for streptokinase expression inhibitor project, luminescence, kanamycin, BacTiterGlo, confirmation (AID 1900). It is filed as functional, organism-based.
Test [31] concerns BJ. Briefly: cytotoxicity toward BJ-TERT fibroblasts, dose response, cell-based, RAS-independent, luminescence (AID 1933). Particulars: Homo sapiens. The test is classed as functional.
Test [32] has as its system BJ. The test can be described thus: cytotoxicity toward BJ-TERT-LT-ST fibroblasts, dose response, cell-based, RAS-independent, luminescence (AID 1935).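 Further: BJ fibroblasts immortalized with TERT plus LT and ST oncogenes.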 As to conditions: Homo sapiens. The test is classed as functional.
Test [33] can be described thus: Glucagon-like peptide 1 release potency, NCI-H716 cell line, dose-response, half-maximal inhibitory concentration (AID 1117344). It is filed as functional, cell-based.
Test [34] can be described thus: half-maximal inhibitory concentration for glucagon-like peptide-1 release, STC-1 cell line, dose-response (AID 1117345). The test is classed as functional, cell-based.
The nature of test [35]: Dose-response inhibition of insulin secretion in a rat insulinoma line at 5 mM glucose (AID 1117331). The test is classed as functional, cell-based. Particulars: INS-1E.

Sequence of NAD-dependent protein deacylase sirtuin-5, mitochondrial (Q9NXA8 whole entry): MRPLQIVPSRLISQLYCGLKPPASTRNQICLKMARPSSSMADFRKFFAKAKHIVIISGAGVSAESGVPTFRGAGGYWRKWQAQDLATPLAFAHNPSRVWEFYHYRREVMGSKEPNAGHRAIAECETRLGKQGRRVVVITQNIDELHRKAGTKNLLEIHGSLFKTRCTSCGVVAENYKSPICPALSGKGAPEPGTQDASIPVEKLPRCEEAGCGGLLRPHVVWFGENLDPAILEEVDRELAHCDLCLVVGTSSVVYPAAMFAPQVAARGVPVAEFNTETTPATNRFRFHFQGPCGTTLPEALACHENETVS

With `COCCNC(=O)C[C@@H]1CC[C@H]2[C@H](COc3ccc(NC(=O)Nc4cccc(F)c4)cc3C(=O)N2C)O1`, the AC50 in test [1] was > 30 µM (inactive).
As to `Brc1ccc(-c2nnc(SCc3ccccn3)o2)cc1`, the concentration for an effect of 90% (IC90) in [2] and in test [5] was 4 µM (active) each time. Also, the AC50 in test [3] is > 52 µM (inactive); in [4] it was 5.42 µM (active).
As to `CCC(=O)N(C)C[C@@H]1Oc2ncc(C#Cc3ccncc3)cc2C(=O)N([C@@H](C)CO)C[C@@H]1C`, the concentration at half-maximal activity (AC50) is 2.86 µM (active) in [6] and 17.2 µM (active) in test [7].
In the case of `CN1c2ccc(-c3cccc(F)c3)cc2[C@H]2[C@H](CCN2C(=O)CCCCCCN)[C@H]1CO`, the AC50 was 13 µM (active) in test [8] and > 52 µM (inactive) in [9].
As for `CO[C@@H]1CN(C)C(=O)c2ccc(NC(=O)C3CC3)cc2OC[C@@H](C)N(Cc2cc(F)ccc2F)C[C@H]1C`, the half-maximal activity concentration (AC50) in [10] is 2.08 µM (active); in test [11] it was 76.2 µM (active); in test [12], 1.79 µM (active); in test [13], 5.77 µM (active); in [14], 0.957 µM (active); in [15], 1.22 µM (active).
As for `COc1ccc(NC(=O)N2CCCCN3[C@H](CO)[C@H](c4ccc(C#Cc5ccccc5)cc4)[C@@H]3C2)cc1`, the AC50 in [11] is 85.1 µM (active); in test [12] it was 0.00309 µM (active); in test [13], 0.00346 µM (active); in [14], 0.00384 µM (active); in [16], 0.00652 µM (active); in test [15] it was < 0.3 µM (active).
Consider `O=c1[nH]c(=O)n([C@H]2C[C@H](O)[C@@H](CO)O2)cc1F` [FLOXURIDINE], for which the GI50 was 0.34 µM (active) with SN12K1, 0.25 µM (active) in the test with P388 and 0.25 µM (active) with P388/ADR. Further, the IC50 in test [17] was > 10 µM (inactive); in test [18], > 20 µM (inactive); in test [19], 0.001 µM (active); in [22] it was > 20 µM (inactive); in test [23], 0.001 µM (active); in test [24] it was 0.001 µM (active). Also, the IC50 in test [25] is > 20 µM (inactive); in [26] it was > 20 µM (inactive); in test [27], > 10 µM (inactive); in test [29], 0.001 µM (active). Also, the AC50 with HEK293 is 0.0619 µM (active); in test [20] it was > 70 µM (inactive). Also, the EC50 was > 150 µM (not active) in test [21]; 1.34 µM (active) in the test on Streptococcus; 0.596 µM (active) in the test with BJ [28]; 0.916 µM (active) in [30]; 57 µM (active) in the test on BJ [31]; > 150 µM (inconclusive) with BJ [32].
On to `NC(=O)c1cccnc1` [NIACINAMIDE], for which the IC50 in [33] is > 40 µM (inactive); in test [34] it was > 40 µM (inactive); in test [35] it was > 33.3 µM (inactive).

What is called AC50 is the concentration giving half of the maximal activity seen. The term IC90 denotes the concentration needed for an effect of 90%. As a reminder, the GI50 is the concentration that inhibits growth by half. As usually defined, the IC50 is the midpoint of a concentration-inhibition curve. As usually defined, the EC50 is the concentration needed to bring the measured effect to its halfway point.
